pIC50: −log10 of the molar value.
System: C6-BU-1
Assay: IKCa channel inhibition was determined measuring ionomycin-induced Rb+ efflux of pre loaded rat C6BU1 glioma cell in comparison with Nifedipine; NA=Inactive at 1000 nM; call rule not given here
Assay type: functional, cell-based

IC50 | SMILES
Not Active | CCCCOC(=O)C1=C(C)OC(C)=C(C(=O)OCCCC)C1c1ccc(Cl)cc1

System: C6-BU-1
Assay: IKCa channel inhibition was determined at 72% residual Rb+ efflux of pre loaded rat C6BU1 glioma cell in comparison with Nifedipine
Assay type: functional, cell-based

pIC50 | SMILES
6.00 | CCCOC(=O)C1=C(C)OC(C)=C(C(=O)OCCC)C1c1ccc(Cl)cc1

System: C6-BU-1
Assay: IKCa channel inhibition was determined measuring ionomycin-induced Rb+ efflux of pre loaded rat C6BU1 glioma cell in comparison with Nifedipine
Assay type: functional, cell-based

SMILES | pIC50
COC(=O)C1=C(C)OC(C)=C(C(=O)OC)C1c1ccccc1Cl | 7.00
CCOC(=O)C1=C(C)OC(C)=C(C(=O)OC)C1c1ccc(Cl)cc1 (racemic) | 7.46
COC(=O)C1=C(C)OC(C)=C(C(=O)OC)C1c1ccc(Cl)c(C(F)(F)F)c1 | 7.62
CCOC(=O)C1=C(C)OC(C)=C(C(=O)OCC)C1c1ccc(Cl)cc1 | 6.82
COC(=O)C1=C(C)NC(C)=C(C(=O)OC)C1c1ccccc1[N+](=O)[O-] [NIFEDIPINE] | 6.00
COC(=O)C1=C(C)OC(C)=C(C(C)=O)C1c1ccc(Cl)c(C(F)(F)F)c1 (racemic) | 8.10

The next lines start with the values.

pIC50 | SMILES
6.66 | CC(=O)C1=C(C)OC(C)=C(C(C)=O)C1c1ccc(Cl)cc1
7.62 | COC(=O)C1=C(C)OC(C)=C(C(=O)OC)C1c1ccc(Cl)cc1
7.59 | COC(=O)C1=C(C)OC(C)=C(C(=O)OC)C1c1cccc(Cl)c1
7.12 | COC(=O)C1=C(C)OC(C)=C(C(C)=O)C1c1ccc(Cl)cc1 (racemic)
6.80 | COC(=O)C1=C(C)OC(C)=C(C(=O)OC)C1c1ccccc1

— ChEMBL document CHEMBL1144949, “4-Phenyl-4H-pyrans as IK(Ca) channel blockers” (Bioorg Med Chem Lett, 2003)
